Measured values from patent publication US5134137A, “Cephalosporin antibiotics” (The Upjohn Company, priority 1990, dated 1992).
Converted amounts (≈) assume the structure as drawn. Read-outs that look alike come from different tables or passages of the source.

Key:
Format in all cases: cell-based
Pasteurella hemolytica = experiment: MIC (minimum inhibitory concentration), agar dilution, Pasteurella hemolytica; settings: Pasteurella, read-out: MIC
Experimental: (§1) Stock solution of each test antibiotic compound were prepared to have a concentration of 2 mg. of the test compound per milliliter in sterile water of 0.1M ammonium acetate solution. The amount of each compound used was adjusted for base compound activity as calculated from the purity data for the selected batch of compound.
(§2) The dilution procedure described by Washington and Sutter [Manual of Clinical Microbiology, 3rd, Edit. (Lennett, E. H. et al, Eds.), pp. 453-458 (1980), American Society for Microbiology, Washington, D.C.] was modified so that serial concentrations of 128 to 0.0625 microgram/ml. in sterile water was obtained. Then 1.5 ml. aliquots of these test antibiotic dilution mixtures are added to 13.5 molten (50° C.) Mueller-Hinton agar. Each resulting mixture is poured into 15×100 mm, sterile Petri plates and allowed to dry at room temperature overnight.
(§3) Test bacterial cultures are maintained at -70° C. on glass beads. [See R. J. Yancey, Jr. et al, Amer. Jr. of Vet. Research, 48, No. 7, pp. 1050-1053, (1987)]. At least one bacteria-laden bead per culture is dropped into one ml. of brain heart infusion (BHI) broth for overnight culture at 37° C. in 5% V/V carbon dioxide in air atmosphere.
(§4) On the data of assay, 2 to 8 drops of the bacterial broth cultures are transferred to fresh BHI broth (1 ml.) and the mixture is incubated for 4 to 6 hours at 37° C. in a 5% V/V carbon dioxide in air atmosphere. The resulting cultures are then diluted to match a 0.5 MacFarland standard and further diluted 1:20 V/V with sterile saline solution.
(§5) A 0.001 ml. drop of the resulting mixture, containing approximately 10^3 to 10^4 colony forming units (CFU) of each test bacteria organism, is dispensed onto the surface of the test antibiotic compound test plates with a Steer's type replicator. The resulting innoculated plates are incubated 16 to 18 hours at 37° C. with a carbon dioxide atmosphere.
as §1, with “Stock solutions” for “Stock solution”
as §2, with “mm.” for “mm,”
as §2, with “for Microbiology.” for “for Microbiology,”, “15×100 mm.” for “15×100 mm,”
as §3, with “culture” for “cultures”
(§6) On the day of assay, 2 to 8 drops of the bacterial broth cultures are transferred to fresh BHI broth (1 ml.) and the mixture is incubated for 4 to 6 hours at 37° C. in a 5% V/V carbon dioxide in air atmosphere. […]

Pasteurella multocida = experiment: MIC, agar dilution, Pasteurella multocida; settings: Pasteurella multocida; strain UC9581; read-out: MIC
Experimental: as §1, §2, §3, §4, §5
as §1, with “Stock solutions” for “Stock solution”
as §2, with “mm.” for “mm,”
as §2, with “for Microbiology.” for “for Microbiology,”, “15×100 mm.” for “15×100 mm,”
as §3, with “culture” for “cultures”
as §6

Escherichia coli = experiment: MIC, agar dilution, Escherichia coli; settings: Escherichia coli, read-out: MIC
Experimental: as §1, §2, §3, §4, §5
as §1, with “Stock solutions” for “Stock solution”
as §2, with “mm.” for “mm,”
as §2, with “for Microbiology.” for “for Microbiology,”, “15×100 mm.” for “15×100 mm,”
as §3, with “culture” for “cultures”
as §6

Salmonella choleraesuis = experiment: MIC, agar dilution, Salmonella choleraesuis; settings: Salmonella enterica, read-out: MIC
Experimental: as §1, §2, §3, §4, §5
as §1, with “Stock solutions” for “Stock solution”
as §2, with “mm.” for “mm,”
as §2, with “for Microbiology.” for “for Microbiology,”, “15×100 mm.” for “15×100 mm,”
as §3, with “culture” for “cultures”
as §6

Salmonella typhimurium = experiment: MIC, agar dilution, Salmonella typhimurium; settings: Salmonella enterica, read-out: MIC
Experimental: as §1, §2, §3, §4, §5
as §1, with “Stock solutions” for “Stock solution”
as §2, with “mm.” for “mm,”
as §2, with “for Microbiology.” for “for Microbiology,”, “15×100 mm.” for “15×100 mm,”
as §3, with “culture” for “cultures”
as §6

[1] = test system: Bordetella bronchiseptica; experiment: MIC, agar dilution, Bordetella bronchiseptica; settings: Bordetella bronchiseptica; strain UC6313; read-out: MIC
Experimental: as §1, §2, §3, §4, §5
as §1, with “Stock solutions” for “Stock solution”
as §2, with “mm.” for “mm,”
as §2, with “for Microbiology.” for “for Microbiology,”, “15×100 mm.” for “15×100 mm,”
as §3, with “culture” for “cultures”
as §6

Pseudomonas aeruginosa = experiment: MIC, agar dilution, Pseudomonas aeruginosa; settings: Pseudomonas aeruginosa, read-out: MIC
Experimental: as §1, §2, §3, §4, §5
as §1, with “Stock solutions” for “Stock solution”
as §2, with “mm.” for “mm,”
as §2, with “for Microbiology.” for “for Microbiology,”, “15×100 mm.” for “15×100 mm,”
as §3, with “culture” for “cultures”
as §6

Staphylococcus aureus = experiment: MIC, agar dilution, Staphylococcus aureus; settings: Staphylococcus aureus, read-out: MIC
Experimental: as §1, §2, §3, §4, §5
as §1, with “Stock solutions” for “Stock solution”
as §2, with “mm.” for “mm,”
as §2, with “for Microbiology.” for “for Microbiology,”, “15×100 mm.” for “15×100 mm,”
as §3, with “culture” for “cultures”
as §6

Streptococcus agalactiae = experiment: MIC, agar dilution, Streptococcus agalactiae; settings: Streptococcus agalactiae, read-out: MIC
Experimental: as §1, §2, §3, §4, §5
as §1, with “Stock solutions” for “Stock solution”
as §2, with “mm.” for “mm,”
as §2, with “for Microbiology.” for “for Microbiology,”, “15×100 mm.” for “15×100 mm,”
as §3, with “culture” for “cultures”
as §6

Streptococcus bovis = experiment: MIC, agar dilution, Streptococcus bovis; settings: Streptococcus equinus; strain UC6281; read-out: MIC
Experimental: as §1, §2, §3, §4, §5
as §1, with “Stock solutions” for “Stock solution”
as §2, with “mm.” for “mm,”
as §2, with “for Microbiology.” for “for Microbiology,”, “15×100 mm.” for “15×100 mm,”
as §3, with “culture” for “cultures”
as §6

[2] = test system: Streptococcus dysgalactiae; experiment: MIC, agar dilution, Streptococcus dysgalactiae; settings: Streptococcus dysgalactiae; strain UC251; read-out: MIC
Experimental: as §1, §2, §3, §4, §5
as §1, with “Stock solutions” for “Stock solution”
as §2, with “mm.” for “mm,”
as §2, with “for Microbiology.” for “for Microbiology,”, “15×100 mm.” for “15×100 mm,”
as §3, with “culture” for “cultures”
as §6

Enterococcus faecium = experiment: MIC, agar dilution, Enterococcus faecium; settings: Enterococcus faecium; strain UC241; read-out: MIC
Experimental: as §1, with “Stock solutions” for “Stock solution”
as §2, §3, §4, §5, §1
as §2, with “mm.” for “mm,”
as §2, with “for Microbiology.” for “for Microbiology,”, “15×100 mm.” for “15×100 mm,”
as §3, with “culture” for “cultures”
as §6

Enterococcus faecalis = experiment: MIC, agar dilution, Enterococcus faecalis; settings: Enterococcus faecalis; strain UC694; read-out: MIC
Experimental: as §1, with “Stock solutions” for “Stock solution”
as §2, §3, §4, §5, §1
as §2, with “mm.” for “mm,”
as §2, with “for Microbiology.” for “for Microbiology,”, “15×100 mm.” for “15×100 mm,”
as §3, with “culture” for “cultures”
as §6

Streptococcus suis = experiment: MIC, agar dilution, Streptococcus suis; settings: Streptococcus suis; strain 650-2; read-out: MIC
Experimental: as §1, §2, §3, §4, §5
as §1, with “Stock solutions” for “Stock solution”
as §2, with “mm.” for “mm,”
as §2, with “for Microbiology.” for “for Microbiology,”, “15×100 mm.” for “15×100 mm,”
as §3, with “culture” for “cultures”
as §6

Streptococcus uberis = experiment: MIC, agar dilution, Streptococcus uberis; settings: Streptococcus uberis, read-out: MIC
Experimental: as §1, §2, §3, §4, §5
as §1, with “Stock solutions” for “Stock solution”
as §2, with “mm.” for “mm,”
as §2, with “for Microbiology.” for “for Microbiology,”, “15×100 mm.” for “15×100 mm,”
as §3, with “culture” for “cultures”
as §6

Corynebacterium pyogenes = experiment: MIC, agar dilution, Corynebacterium pyogenes; settings: strain 213-2; read-out: MIC
Experimental: as §1, §2, §3, §4, §5
as §1, with “Stock solutions” for “Stock solution”
as §2, with “mm.” for “mm,”
as §2, with “for Microbiology.” for “for Microbiology,”, “15×100 mm.” for “15×100 mm,”
as §3, with “culture” for “cultures”
as §6

Micrococcus luteus = experiment: MIC, agar dilution, Micrococcus luteus; settings: Micrococcus luteus; strain UC130; read-out: MIC
Experimental: as §1, §2, §3, §4, §5
as §1, with “Stock solutions” for “Stock solution”
as §2, with “mm.” for “mm,”
as §2, with “for Microbiology.” for “for Microbiology,”, “15×100 mm.” for “15×100 mm,”
as §3, with “culture” for “cultures”
as §6

[3] = CHOLERAESUIS / UC6073, strain UC6073
[4] = CHOLERAESUIS / UC6077, strain UC6077
[5] = TYPHIMURIUM / UC6162, strain UC6162
[6] = TYPHIMURIUM / UC6164, strain UC6164

MIC (Pasteurella multocida) [µg/mL]	MIC (Escherichia coli; strain UC3784) [µg/mL]	MIC (Escherichia coli; strain UC6720) [µg/mL]	MIC (Escherichia coli; strain UC9670) [µg/mL]	MIC (Salmonella typhimurium; [5]) [µg/mL]	MIC (Salmonella typhimurium; [6]) [µg/mL]	MIC [1] [µg/mL]	MIC (Staphylococcus aureus; strain UC6093) [µg/mL]	MIC (Staphylococcus aureus; strain UC6097) [µg/mL]	MIC (Staphylococcus aureus; strain UC9203) [µg/mL]	MIC (Streptococcus agalactiae; strain UC3947) [µg/mL]	MIC (Streptococcus agalactiae; strain UC6892) [µg/mL]	MIC (Streptococcus bovis) [µg/mL]	MIC [2] [µg/mL]	MIC (Enterococcus faecium) [µg/mL]	Structure (SMILES)	MIC (Pasteurella hemolytica; strain UC6531) [µg/mL]	MIC (Pasteurella hemolytica; strain UC6532) [µg/mL]	MIC (Pasteurella hemolytica; strain UC9582) [µg/mL]	MIC (Salmonella choleraesuis; [3]) [µg/mL]	MIC (Salmonella choleraesuis; [4]) [µg/mL]	other results
≤ 0.06	2 (≈ 2.33 µM)	2 (≈ 2.33 µM)	2 (≈ 2.33 µM)	2 (≈ 2.33 µM)	2 (≈ 2.33 µM)	> 32	16 (≈ 18.7 µM)	16 (≈ 18.7 µM)	16 (≈ 18.7 µM)	≤ 0.06	≤ 0.06	≤ 0.06	≤ 0.06	> 32	CO/N=C(\C(=O)N[C@@H]1C(=O)N2C(C(=O)O)=C(CSSCC3=C(C(=O)O)N4C(=O)[C@@H](NC(=O)/C(=N\OC)c5csc(N)n5)[C@H]4SC3)CS[C@H]12)c1csc(N)n1 [Example 5, 1,1-bis-(7β)-(2-(2-amino-1,3-thiazol-4-yl)-(Z)-2-(methoxyimino)acetamido-4-carboxy-3-cephem-3-yl)dimethyldisulfide]	≤ 0.06	≤ 0.06	≤ 0.06	4 (≈ 4.67 µM)	8 (≈ 9.33 µM)	MIC (Pseudomonas aeruginosa; strain ATCC27853): > 32 µg/mL; MIC (Enterococcus faecalis): > 32 µg/mL; MIC (Streptococcus suis): ≤ 0.06 µg/mL; MIC (Streptococcus uberis; strain UC3946): 0.25 µg/mL (≈ 0.292 µM); MIC (Streptococcus uberis; strain UC6159): 16 µg/mL (≈ 18.7 µM); MIC (Corynebacterium pyogenes): 0.25 µg/mL (≈ 0.292 µM); MIC (Micrococcus luteus): ≤ 0.06 µg/mL
≤ 0.06	1 (≈ 1.72 µM)	2 (≈ 3.43 µM)	1 (≈ 1.72 µM)	4 (≈ 6.86 µM)	2 (≈ 3.43 µM)	> 32	2 (≈ 3.43 µM)	2 (≈ 3.43 µM)	2 (≈ 3.43 µM)	≤ 0.06	≤ 0.06	≤ 0.06	≤ 0.06	> 32	CO/N=C(\C(=O)N[C@@H]1C(=O)N2C(C(=O)O)=C(CSSc3ccc([N+](=O)[O-])cc3)CS[C@H]12)c1csc(N)n1 [Example 18]	0.25 (≈ 0.429 µM)	≤ 0.06	≤ 0.06	2 (≈ 3.43 µM)	4 (≈ 6.86 µM)	MIC (Pseudomonas aeruginosa; ATCC27853, strain ATCC 27853): > 32 µg/mL; MIC (Enterococcus faecalis): > 32 µg/mL; MIC (Streptococcus suis): ≤ 0.06 µg/mL; MIC (Streptococcus uberis; strain UC3946): 0.25 µg/mL (≈ 0.429 µM); MIC (Streptococcus uberis; strain UC6159): 8 µg/mL (≈ 13.7 µM); MIC (Corynebacterium pyogenes): 0.25 µg/mL (≈ 0.429 µM); MIC (Micrococcus luteus): ≤ 0.06 µg/mL
